The text below walks through data of ChEMBL document CHEMBL4428035, “Urea derivates of ursolic, oleanolic and maslinic acid induce apoptosis and are selective cytotoxic for several human tumor cell lines” (Eur J Med Chem, 2016).

For one assay, the system named is 518A2. The assay is described as follows: Cytotoxicity against human 518A2 cells assessed as reduction in cell proliferation after 96 hrs by sulforhodamine B assay. The assay is classed as functional, cell-based. The settings on record: 518A2, 96 h. For orientation: Sulforhodamine B stains cellular protein and so reports cell mass.
In a further assay the test system is FaDu. The assay is described as follows: Cytotoxicity against human FADU cells assessed as reduction in cell proliferation after 96 hrs by sulforhodamine B assay. The assay is classed as functional, cell-based.
In the next assay the test system is HT-29. The assay can be described thus: Cytotoxicity against human HT-29 cells assessed as reduction in cell proliferation after 96 hrs by sulforhodamine B assay. Type of assay: functional, cell-based. As to conditions: HT-29, 96 h.
The test system of a further assay is MCF7. The assay is described as follows: Cytotoxicity against human MCF7 cells assessed as reduction in cell proliferation after 96 hrs by sulforhodamine B assay. The assay is classed as functional, cell-based. As to conditions: MCF7, 96 h.
In the next assay the test system is A549. The assay is described as follows: Cytotoxicity against human A549 cells assessed as reduction in cell proliferation after 96 hrs by sulforhodamine B assay. The assay is classed as functional, cell-based. As to conditions: A549, 96 h.
Another assay has as its system SW-1736. The assay is described as follows: Cytotoxicity against human SW1736 cells assessed as reduction in cell proliferation after 96 hrs by sulforhodamine B assay. The assay is classed as functional, cell-based. As to conditions: SW-1736, 96 h.
In another assay the test system is NIH3T3. The assay is described as follows: Cytotoxicity against mouse NIH/3T3 cells assessed as reduction in cell proliferation after 96 hrs by sulforhodamine B assay. The assay is classed as ADME, cell-based. As to conditions: NIH3T3, 96 h.
Another assay deals with A2780. The assay is described as follows: Cytotoxicity against human A2780 cells assessed as reduction in cell proliferation after 96 hrs by sulforhodamine B assay. As to conditions: A2780, 96 h. Type of assay: functional, cell-based.

Turning to `CC1(C)CC[C@]2(C(=O)NCc3ccccc3)CC[C@]3(C)C(=CC[C@@H]4[C@@](C)(CC=O)[C@H](C(C)(C)C=O)CC[C@]43C)[C@@H]2C1`, the half-maximal effective concentration (EC50) (in general, the concentration that produces a half-maximal response) was 6 µM with 518A2; 7 µM with FaDu; 8.3 µM with HT-29; 5.4 µM in the assay on MCF7; 6.9 µM in the assay with A549; 7.5 µM in the assay on SW-1736. Also, the EC50 with NIH3T3 is 12.2 µM.
For `CC(=O)O[C@@H]1[C@H](OC(C)=O)C[C@]2(C)[C@H]3CC=C4[C@@H]5CC(C)(C)CC[C@]5(C(=O)O)CC[C@@]4(C)[C@]3(C)CC[C@H]2C1(C)C`, the 50% effective concentration (EC50) with 518A2 was determined as 15.3 µM; with FaDu, 17.3 µM; with HT-29, 21.4 µM; in the assay with MCF7 it was 17.6 µM; in the assay with A549, 20.4 µM; with A2780, 10.5 µM. The values for the half-maximal effective concentration (EC50) in the assay with SW-1736 and in the assay on NIH3T3 were 22 µM and 14.2 µM, respectively.
Consider `CC(=O)O[C@@H]1C[C@]2(C)[C@H]3CC=C4[C@@H]5CC(C)(C)CC[C@]5(C(=O)NCCc5ccccc5)CC[C@@]4(C)[C@]3(C)CC[C@H]2C(C)(C)[C@H]1OC(C)=O`, for which the concentration for a half-maximal effect (EC50) was 1.2 µM with 518A2; 2.8 µM in the assay with FaDu; 6.1 µM in the assay on HT-29; 5.8 µM in the assay on MCF7; 9.2 µM in the assay with A549; 5.2 µM in the assay with SW-1736. The EC50 with NIH3T3 worked out at 9.5 µM.
Take `CC(=O)O[C@H]1C[C@]2(C)[C@H]3CC=C4[C@@H]5[C@@H](C)[C@H](C)CC[C@]5(NC(=O)Oc5ccccc5)CC[C@@]4(C)[C@]3(C)CC[C@H]2C(C)(C)[C@H]1OC(C)=O`: the concentration giving a half-maximal response (EC50) in the assay on 518A2 worked out at 3.1 µM; in the assay with HT-29, 7.6 µM; in the assay with MCF7, 23.3 µM; in the assay on A549, 10.1 µM; in the assay with A2780, 1.6 µM; with SW-1736 it was 5.5 µM. Also, the 50% effective concentration (EC50) with NIH3T3 is > 30 µM.
On to `CC(=O)O[C@H]1C[C@]2(C)[C@H]3CC=C4[C@@H]5CC(C)(C)CC[C@]5(C(=O)Nc5ccccc5)CC[C@@]4(C)[C@]3(C)CC[C@H]2C(C)(C)[C@H]1OC(C)=O`, for which the EC50 in the assay on 518A2 was 2 µM; in the assay with HT-29 it was 2.6 µM; with MCF7, 1.8 µM; in the assay on A549, 4.9 µM; in the assay on A2780, 1.3 µM; in the assay on SW-1736 it was 2.7 µM. In addition, in the assay with NIH3T3, the concentration for a half-maximal effect (EC50) was > 60 µM.
Consider `CC(=O)O[C@H]1C[C@]2(C)[C@H]3CC=C4[C@@H]5CC(C)(C)CC[C@]5(C(=O)O)CC[C@@]4(C)[C@]3(C)CC[C@H]2C(C)(C)[C@H]1OC(C)=O`, for which the concentration giving a half-maximal response (EC50) is > 30 µM with FaDu; 18.8 µM in the assay on HT-29; 15.1 µM in the assay with MCF7; 29.1 µM in the assay with A549; 7.2 µM with A2780; > 30 µM with SW-1736. In the assay on NIH3T3, the half-maximal effective concentration (EC50) worked out at 8 µM.
Take `CC1(C)CC[C@]2(C(=O)NCc3ccccc3)CC[C@]3(C)C(=CC[C@@H]4[C@@]5(C)C[C@@H]6O[C@@H]6C(C)(C)[C@@H]5CC[C@]43C)[C@@H]2C1`: the EC50 in the assay with 518A2 is 15.7 µM; with FaDu, > 30 µM; in the assay on HT-29, 26.6 µM; in the assay on MCF7 it was 8.6 µM; in the assay on A549, 25.8 µM; in the assay with A2780 it was 8.6 µM. In addition, the EC50 was > 30 µM with SW-1736 and 20.5 µM in the assay on NIH3T3.
Take `CC(=O)O[C@@H]1C[C@]2(C)[C@H]3CC=C4[C@@H]5CC(C)(C)CC[C@]5(C(=O)Nc5ccccc5)CC[C@@]4(C)[C@]3(C)CC[C@H]2C(C)(C)[C@H]1OC(C)=O`: the half-maximal effective concentration (EC50) in the assay with 518A2 was found to be 0.7 µM; in the assay on FaDu, 1.4 µM; with HT-29 it was 2.9 µM; in the assay on MCF7, 3.1 µM; in the assay with A549 it was 9.5 µM; with SW-1736, 2.9 µM. Also, the concentration giving a half-maximal response (EC50) with NIH3T3 is 16 µM.
In the case of `CC(=O)O[C@H]1C[C@]2(C)[C@H]3CC=C4[C@@H]5[C@@H](C)[C@H](C)CC[C@]5(C(=O)Nc5ccccc5)CC[C@@]4(C)[C@]3(C)CC[C@H]2C(C)(C)[C@H]1OC(C)=O`, the EC50 is 3.4 µM with 518A2; 7.3 µM in the assay on HT-29; 16.4 µM in the assay with MCF7; 8.9 µM in the assay on A549; 3.3 µM in the assay with A2780; 4.4 µM in the assay with SW-1736. Besides, the concentration for a half-maximal effect (EC50) in the assay with NIH3T3 is > 60 µM.
`CC1(C)CC[C@]2(C(=O)NCc3ccccc3)CC[C@]3(C)C(=CC[C@@H]4[C@@]5(C)C[C@H]6OC(C)(C)O[C@@H]6C(C)(C)[C@@H]5CC[C@]43C)[C@@H]2C1`: the 50% effective concentration (EC50) in the assay on 518A2 is 29.8 µM; with FaDu it was > 30 µM; with HT-29 it was 25.9 µM; with MCF7, 14.6 µM; in the assay with A549 it was 26.4 µM; with A2780, 12.9 µM. Further, the EC50 is > 30 µM in the assay on SW-1736 and 21.6 µM in the assay with NIH3T3.
On to `CO[C@@H]1C[C@]2(C)[C@H]3CC=C4[C@@H]5CC(C)(C)CC[C@]5(C(=O)NCc5ccccc5)CC[C@@]4(C)[C@]3(C)CC[C@H]2C(C)(C)[C@H]1O`, for which the EC50 turned out to be 12.6 µM in the assay on 518A2; 11.4 µM with FaDu; 10.6 µM in the assay on HT-29; 11.7 µM in the assay on MCF7; 21.5 µM with A549; 18.1 µM with SW-1736. Also, the EC50 in the assay with NIH3T3 was 11.9 µM.
Regarding `CC(=O)O[C@H]1C[C@]2(C)[C@H]3CC=C4[C@@H]5CC(C)(C)CC[C@]5(C(=O)O)CC[C@@]4(C)[C@]3(C)CC[C@H]2C(C)(C)[C@@H]1OC(C)=O`, the EC50 in the assay with 518A2 amounted to 11.7 µM; with FaDu it was 9.5 µM; in the assay on HT-29 it was 16.5 µM; with MCF7, 14.8 µM; in the assay with A549 it was 15.2 µM; with A2780, 6.7 µM. In addition, the EC50 in the assay with SW-1736 is 23.4 µM; in the assay on NIH3T3, 10 µM.
As to `CO[C@@H]1C[C@]2(C)[C@H]3CC=C4[C@@H]5CC(C)(C)CC[C@]5(C(=O)NCc5ccccc5)CC[C@@]4(C)[C@]3(C)CC[C@H]2C(C)(C)[C@H]1OC`, the 50% effective concentration (EC50) came to 18.1 µM in the assay on 518A2; 17.2 µM in the assay on FaDu; 14.3 µM in the assay on HT-29; 14.6 µM with MCF7; 15.3 µM in the assay on A549; 20.5 µM with SW-1736. In addition, the EC50 in the assay with NIH3T3 worked out at 14.7 µM.
Turning to `CC1(C)CC[C@]2(C(=O)NCc3ccccc3)CC[C@]3(C)C(=CC[C@@H]4[C@@]5(C)C[C@H]6OCO[C@@H]6C(C)(C)[C@@H]5CC[C@]43C)[C@@H]2C1`, the EC50 in the assay with 518A2 was > 30 µM; in the assay on FaDu, > 30 µM; in the assay with HT-29 it was 20.8 µM; in the assay with MCF7 it was 16.7 µM; in the assay with A549, > 30 µM; with SW-1736 it was > 30 µM. Also, the concentration for a half-maximal effect (EC50) in the assay on NIH3T3 worked out at 13.9 µM.
In the case of `CC(=O)O[C@H]1C[C@]2(C)[C@H]3CC=C4[C@@H]5CC(C)(C)CC[C@]5(NC(=O)c5ccccc5)CC[C@@]4(C)[C@]3(C)CC[C@H]2C(C)(C)[C@H]1OC(C)=O`, the EC50 with 518A2 was 3.5 µM; with HT-29, 6.8 µM; with MCF7 it was 16.8 µM; in the assay on A549, 11.1 µM; in the assay with A2780 it was 3.1 µM; with SW-1736 it was 6.8 µM. Moreover, the EC50 in the assay with NIH3T3 was 12.2 µM.
Consider `CC(=O)O[C@H]1C[C@]2(C)[C@H]3CC=C4[C@@H]5[C@@H](C)[C@H](C)CC[C@]5(NC(=O)c5ccccc5)CC[C@@]4(C)[C@]3(C)CC[C@H]2C(C)(C)[C@H]1OC(C)=O`, for which the EC50 is 7.9 µM in the assay on 518A2; 11.7 µM in the assay with HT-29; > 30 µM with MCF7; 16.4 µM with A549; 6.7 µM in the assay on A2780; 14.9 µM in the assay with SW-1736. Also, in the assay with NIH3T3, the EC50 turned out to be 14.1 µM.
Take `CC(=O)O[C@H]1C[C@]2(C)[C@H]3CC=C4[C@@H]5[C@@H](C)[C@H](C)CC[C@]5(NC(=O)Nc5ccccc5)CC[C@@]4(C)[C@]3(C)CC[C@H]2C(C)(C)[C@H]1OC(C)=O`: the EC50 in the assay with 518A2 worked out at 2.5 µM; in the assay on HT-29 it was 16 µM; in the assay with MCF7 it was 19.6 µM; in the assay with A549, 12.4 µM; with A2780, 1.5 µM; with SW-1736 it was 6.8 µM. Besides, the half-maximal effective concentration (EC50) in the assay on NIH3T3 is > 120 µM.
On to `COCO[C@@H]1C[C@]2(C)[C@H]3CC=C4[C@@H]5CC(C)(C)CC[C@]5(C(=O)NCc5ccccc5)CC[C@@]4(C)[C@]3(C)CC[C@H]2C(C)(C)[C@H]1OCOC`, for which the EC50 in the assay with 518A2 worked out at 22.1 µM; in the assay on FaDu, 17.9 µM; in the assay on HT-29, 15.9 µM; in the assay on MCF7 it was 15.2 µM; in the assay with A549 it was 17.3 µM; in the assay on SW-1736, 18.2 µM. For the same compound, the concentration giving a half-maximal response (EC50) in the assay with NIH3T3 came out at 15 µM.
For the compound `CC(=O)O[C@@H]1C[C@]2(C)[C@H]3CC=C4[C@@H]5CC(C)(C)CC[C@]5(C(=O)O)CC[C@@]4(C)[C@]3(C)CC[C@H]2C(C)(C)[C@H]1OC(C)=O`, the EC50 in the assay on 518A2 came out at 23.1 µM; with FaDu it was 17.8 µM; in the assay with MCF7, 16.6 µM.
